Measured values: the supplement of paper PMC13380429

How the values were obtained:
Conditions in all cases: 72 h
Calu-3 [1] = assay: relative viability EC50 (midpoint between 100% and the lowest measured viability); higher = less toxic
Vero E6 [2] = assay: as above
U2OS [3] = assay: as above
HepG2 [4] = assay: as above
Caco-2 [5] = assay: as above
Calu-3 [6] = assay: drug sensitivity score (DSS) for viability; higher = more toxic; extreme values may be limits of the assay
Vero E6 [7] = assay: as above
U2OS [8] = assay: as above
HepG2 [9] = assay: as above
Caco-2 [10] = assay: as above
Calu-3 [11] = assay: cell viability relative to DMSO; higher = less toxic
Vero E6 [12] = assay: as above
U2OS [13] = assay: as above
HepG2 [14] = assay: as above
Caco-2 [15] = assay: as above

SMILES	relative viability EC50 (Calu-3 [1])	relative viability EC50 (Vero E6 [2])	relative viability EC50 (U2OS [3])	relative viability EC50 (HepG2 [4])	relative viability EC50 (Caco-2 [5])	drug sensitivity score (Calu-3 [6])	drug sensitivity score (Vero E6 [7])	drug sensitivity score (U2OS [8])	drug sensitivity score (HepG2 [9])	drug sensitivity score (Caco-2 [10])	cell viability (Calu-3 [11]; 1 nM)	cell viability (Calu-3 [11]; 10 nM)	cell viability (Calu-3 [11]; 100 nM)	cell viability (Calu-3 [11]; 1000 nM)	cell viability (Calu-3 [11]; 10000 nM)	cell viability (Vero E6 [12]; 1 nM)	cell viability (Vero E6 [12]; 10 nM)	cell viability (Vero E6 [12]; 100 nM)	cell viability (Vero E6 [12]; 1000 nM)	cell viability (Vero E6 [12]; 10000 nM)	cell viability (U2OS [13]; 1 nM)	cell viability (U2OS [13]; 10 nM)	cell viability (U2OS [13]; 100 nM)	cell viability (U2OS [13]; 1000 nM)	cell viability (U2OS [13]; 10000 nM)	cell viability (HepG2 [14]; 1 nM)	cell viability (HepG2 [14]; 10 nM)	cell viability (HepG2 [14]; 100 nM)	cell viability (HepG2 [14]; 1000 nM)	cell viability (HepG2 [14]; 10000 nM)	cell viability (Caco-2 [15]; 1 nM)	cell viability (Caco-2 [15]; 10 nM)	cell viability (Caco-2 [15]; 100 nM)	cell viability (Caco-2 [15]; 1000 nM)	cell viability (Caco-2 [15]; 10000 nM)
CN1CCC2=C(C1)C(c1ccccc1)c1ccccc12 (stereo not given) [phenindamine]	> 10 µM	> 10 µM	> 10 µM	> 10 µM	> 10 µM	0	0	0	0	0	96.7%	107%	98.2%	106%	99.1%	98.9%	96.3%	97.4%	99.7%	97.2%	94%	100%	93.8%	98%	92.6%	97%	88.6%	98.2%	94.3%	88.9%	97.4%	95.1%	99.1%	102%	89%
CCn1c(=O)n(C2=C(CO)CN(CC3CCCCCCC3)CC2)c2ccccc21 [trap-101]	> 10 µM	> 10 µM	> 10 µM	> 10 µM	> 10 µM	0	0	0	0	0.3	99.6%	106%	94.5%	104%	92.6%	98%	96.8%	95.6%	96.3%	98.9%	98.2%	101%	97.4%	98.8%	93.8%	97.8%	96.7%	91.5%	96.5%	98%	102%	89.9%	96.7%	93.6%	83.5%
C[C@H](N)Cn1ccc2cc(F)c(Cl)cc21 [Ro-60-0175]	> 10 µM	> 10 µM	> 10 µM	> 10 µM	> 10 µM	0	0	0	0	0.6	93.7%	92.3%	87.4%	95.6%	87.2%	104%	98.4%	100%	95.3%	96%	96.5%	106%	96.9%	104%	93.3%	99.5%	101%	106%	99.8%	103%	94.9%	90.9%	101%	95.8%	85.2%
CCC(CC)Nc1cc(C)nc(Oc2c(C)cc(C)cc2C)c1C	> 10 µM	> 10 µM	> 10 µM	> 10 µM	> 10 µM	0	0	0	0	0	94.3%	94.5%	98.6%	96.5%	100%	96.8%	96.1%	90.1%	94.3%	109%	104%	95.7%	102%	98.5%	97%	94.9%	104%	93.1%	108%	103%	90.2%	96.6%	101%	99.9%	100%
Cn1ccc2cc(NC(=O)Nc3cccnc3)ccc21	> 10 µM	> 10 µM	> 10 µM	> 10 µM	> 10 µM	0	0	0	0	0.2	108%	97.6%	98.1%	94.9%	98%	105%	102%	103%	97.7%	103%	105%	98.8%	101%	97.1%	100%	91.5%	102%	92.3%	95.8%	97.2%	100%	97.9%	88.7%	84.5%	95.8%
CC1(C)S[C@@H]2[C@H](NC(=O)[C@H](NC(=O)N3CCNC3=O)c3ccccc3)C(=O)N2[C@H]1C(=O)O [azlocillin]	> 10 µM	> 10 µM	> 10 µM	> 10 µM	> 10 µM	0	0	0	0	0	97.1%	100%	93%	98.7%	105%	95.7%	96.8%	96.9%	94.2%	98%	96.6%	100%	93.6%	95%	98.6%	99.1%	88.5%	99.3%	93.9%	88%	105%	93%	91.3%	98.8%	98.1%
O=C(O)[C@H]1CC[C@H](c2cc3cccnc3c(-c3cccc(F)c3)n2)CC1	> 10 µM	> 10 µM	> 10 µM	> 10 µM	> 10 µM	0	0.2	0	0	0	112%	95.1%	91.1%	95%	107%	101%	99.3%	96.3%	99%	86.3%	104%	98.4%	96.9%	96.5%	99.6%	96.3%	98.9%	101%	92.2%	90.1%	102%	103%	108%	98%	109%
